# Source: US20250092065A1, “2-(INDAZOL-5-YL)-6-(PIPERIDIN-4-YL)-1,7-NAPHTHYRIDINE DERIVATIVES AND RELATED COMPOUNDS AS MODULATORS FOR SPLICING NUCLEIC ACIDS AND FOR THE TREATMENT OF PROLIFERATIVE DISEASES” (REMIX THERAPEUTICS INC., priority 2022, published 2025)
# Like-named read-outs stand apart in the source and are kept apart here.
# Assays:
# MYB mRNA = assay: RT-qPCR splicing assay, MYB mRNA canonical (CJ) and alternative (AJ) junction; format: cell-based, human; settings: Homo sapiens; for AC50: MYB alternative junction mRNA, read-out: MYB AJ (increase in AJ mRNA, AC50)
# Description: (§1) Compounds described herein were used to modulate RNA transcript abundance in cells. The expression of a target mRNA was measured by detecting the formation of an exon-exon junction in the canonical transcript (CJ). A compound mediated exon-inclusion event was detected by observing an increase in formation of a new junction with an alternative exon (AJ). Real-time qPCR assays were used to detect these splicing switches and interrogate the potency of various compounds towards different target genes. A high-throughput real time quantitative PCR (RT-qPCR) assay was developed to measure these two isoforms of the mRNA (CJ and AJ) for exemplary genes, such as HTT, SMN2, and MYB, together with a control housekeeping gene, GAPDH or GUSB or PPIA, used for normalization. Briefly, the A673 or K562 cell line was treated with various compounds described herein (e.g., compounds of Formula (I)). After treatment, the levels of the HTT, MYB, or SMN2 mRNA targets were determined from each sample of cell lysate by cDNA synthesis followed by qPCR.
# (§2) The A673 cell line was cultured in DMEM with 10% FBS. Cells were diluted with full growth media and plated in a 96-well plate (15,000 cells in 100 ul media per well). The plate was incubated at 37° C. with 5% CO2 for 24 hours to allow cells to adhere. An 11-point 3-fold serial dilution of the compounds was made in DMSO then diluted in media in an intermediate plate. Compounds were transferred from the intermediate plate to the cell plate with the top dose at a final concentration of 10 uM in the well. Final DMSO concentration was kept at or below 0.25%. The cell plate was returned to the incubator at 37° C. with 5% CO2 for an additional 24 hours.
# (§3) The K562 cell line was cultured in IMDM with 10% FBS. For K562, cells were diluted with full growth media and plated in either a 96-well plate (50,000 cells in 50 uL media per well) or a 384-well plate (8,000-40,000 cells in 45 uL media per well). An 11-point 3-fold serial dilution of the compounds were made in DMSO then diluted in media in an intermediate plate. Compound was transferred from the intermediate plate to the cell plate with the top dose at a final concentration of 10 uM in the well. Final DMSO concentration was kept at or below 0.25%. Final volume was 100 uL for 96-well plate and 50 uL for 384-well plate. The cell plate was then placed in an incubator at 37° C. with 5% CO2 for 24 hours.
# (§4) The cells were then gently washed with 50 uL-100 uL cold PBS before proceeding to addition of lysis buffer. 30 uL-50 μL of room temperature lysis buffer with DNAse I (and optionally RNAsin) was added to each well. Cells were shaken/mixed thoroughly at room temperature for 5-10 minutes for lysis to take place and then 3 uL-5 μL of room temperature stop solution was added and wells were shaken/mixed again. After 2-5 minutes, the cell lysate plate was transferred to ice for RT-qPCR reaction setup. The lysates could also be frozen at −80° C. for later use.
# (§5) In some cases, a direct lysis buffer was used. An appropriate volume of 3× lysis buffer (10 mM Tris, 150 mM NaCl, 1.5%-2.5% Igepal and 0.1-1 U/uL RNAsin, pH 7.4) was directly added to either K562 or A673 cells in media and mixed by pipetting 3 times. The plates were then incubated at room temperature with shaking/rocking for 20-50 minutes to allow for lysis to take place. After this time, the cell lysate plate was transferred to ice to set up for the RT-qPCR reactions. The lysates could also be frozen at −80° C. for later use.
# (§6) To set up 10 uL RT-qPCR reactions, cell lysates were transferred to 384-well qPCR plates containing the master mix according to the table below. The plates were sealed, gently vortexed, and spun down before the run. The volumes were adjusted accordingly in some instances where the reaction was carried in 20 μL. The table below summarizes the components of the RT-qPCR reactions:
# (§7) The RT-qPCR reaction was performed using a QuantStudio (ThermoFisher) under the following fast cycling conditions. […]
# MYB = assay: HiBiT protein abundance assay, MYB (K562 HiBiT knock-in); format: cell-based, human; settings: HiBiT knock-in K562 cells, 24 hours, top dose 10 μM
# Description: (§8) Compounds described herein were used to screen for effects on quantitative protein abundance using a HiBit assay system (Promega). Quantitative protein abundance was determined by measuring the protein levels of HiBit-tagged protein targets expressed in cell culture via luminescence using the Nano-Glo HiBiT Lytic Detection System, which uses a split complementation assay format to reconstitute NanoBiT enzyme to generate a luminescent signal. A protein abundance assay was developed such that endogenous protein targets could be modified with the HiBiT peptide tag and their abundance could be assessed after compound treatment. Briefly, K562 cell lines containing a HiBiT-modification were treated with various compounds described herein (e.g., compounds of Formulas (I), or (II)). After treatment for 24 hours, the protein abundance of a specific target was determined by measuring luminescence.
# (§9) Cells were maintained in IMIDM with 10% FBS. Before the assay, cells were diluted with […] growth media (IMIDM+[…] media) and were seeded in a 384-well plate at a density of 10000 cells/well (for each cell line listed in Table 6). Each compound was prepared as a 10-point 3-fold serial dilution in DMSO with the top dose at a final concentration of 10 μM in the well. Unmodified K562 cells were added at the previously specified density with DMSO to serve as an assay baseline and positive control (PC) and DMSO only with the respective modified cell lines was added to the negative control (NC) columns. Final DMSO concentration was kept at or below 0.25%. Treated cell plates were placed in an incubator at 37° C. with […] for 24 hours. After 24 hours, 25 μL of Complete HiBit Lytic reagent was added to each well at room temperature (e.g. one plate requiring 10 mL Lytic Buffer, 100 μL LgBiT Protein, 200 μL Lytic Substrate), shaken for 5 minutes at 600 RPM, then left to sit for 10 minutes for signal to stabilize before reading on a Spark Cyto plate reader (Tecan) with a 500 ms measurement time.
# (§10) To determine compound effects on protein abundance of each target in Table 6, the percent response for each respective cell line was calculated at each compound concentration as follows:
# (§11) % response=100*(S−PC)(NC−PC)
# (§12) For the normalized response at each concentration, a four-parameter logistical regression was fit to the data and the response was interpolated at the […] to determine a concentration for protein abundance at 50% (IC50) the untreated control.
# HTT = assay: HiBiT protein abundance assay, HTT (K562 HiBiT knock-in); format: cell-based, human; settings: HiBiT knock-in K562 cells, 24 hours, top dose 10 μM
# Description: as §8, §9, §10, §11, §12
# Target C = assay: HiBiT protein abundance assay, Target C (K562 HiBiT knock-in); format: cell-based, human; settings: HiBiT knock-in K562 cells, 24 hours, top dose 10 μM
# Description: as §9, §10, §11, §12
# HTT mRNA = assay: RT-qPCR splicing assay, HTT mRNA canonical (CJ) and alternative (AJ) junction; format: cell-based, human; settings: Homo sapiens; for AC50: HTT alternative junction mRNA, read-out: HTT AJ (increase in AJ mRNA, AC50)
# Description: as §1, §2, §3, §4, §5, §6, §7
# K562 cells = assay: Cell Titer Glo 2.0 cell viability (toxicity) assay, K562; settings: 500 cells/well, 72 hours
# Description: Compounds described herein were screened for toxicity in K562 (human chronic myelogenous leukemia) and SH-SY5Y (human neuroblastoma) cells using a Cell Titer Glo 2.0 assay.
# Cells were plated at 500 cells/well (K562 cells) in 45 μL of IMDM supplemented with 10% FBS in a 384-well opaque plate. Wells containing only medium were used as a blank control. Test compounds (e.g., compounds of Formula (I) or (II)) were first serially diluted in DMSO then diluted 1:100 with EIDM+10% FBS. The final concentration of DMSO was 0.1% in each well. The cells were incubated for 72 hours at 37° C. and 5% CO2 before assaying with Cell Titer Glo 2.0 reagent.
# SMN2 mRNA = assay: RT-qPCR splicing assay, SMN2 mRNA; format: cell-based, human; settings: Homo sapiens, canonical junction qPCR panel, Table 4; read-out: SMN2 IC50 (decrease in CJ mRNA levels)
# Description: as §1, §2, §3, §4, §5, §6, §7
# [1] = MYB canonical junction mRNA, RT-qPCR, read-out: MYB CJ (decrease in CJ mRNA levels, IC50)
# [2] = canonical junction qPCR panel, Table 4, read-out: MYB IC50 (decrease in CJ mRNA levels)
# [3] = HTT canonical junction mRNA, RT-qPCR, read-out: HTT CJ (decrease in CJ mRNA levels, IC50)
# [4] = canonical junction qPCR panel, Table 4, read-out: HTT IC50 (decrease in CJ mRNA levels)
smiles,measurement,setting,value
"Cc1nc2c(F)c(O)c(-c3ccc4nc(N5CC[C@@H](NC(C)(C)C)C5)ccc4n3)cc2o1 (single isomer, unassigned) [Compound 256]",AC50,MYB mRNA; RT-qPCR,< 0.1 µM
same,IC50,MYB mRNA; [1],< 0.1 µM
same,IC50,MYB mRNA; [2],< 0.1 µM
same,IC50,MYB,< 0.1 µM
same,IC50,HTT,< 0.1 µM
same,IC50,Target C,< 0.1 µM
same,AC50,HTT mRNA; RT-qPCR,< 0.1 µM
same,IC50,HTT mRNA; [3],< 0.1 µM
same,IC50,HTT mRNA; [4],< 0.1 µM
same,"Effect of Exemplary Compounds on Cell Viability, K562",K562 cells,A (A represents <100 nM)
same,IC50,SMN2 mRNA,< 0.1 µM
Cn1cc2cc(-c3ccc4nc(C5CCNCC5)ccc4n3)c(O)cc2n1 [Compound 100],AC50,MYB mRNA; RT-qPCR,1 to 10 µM
same,IC50,MYB mRNA; [1],< 0.1 µM
same,IC50,MYB mRNA; [2],< 0.1 µM
same,IC50,MYB,< 0.1 µM
same,IC50,HTT,< 0.1 µM
same,IC50,Target C,< 0.1 µM
same,AC50,HTT mRNA; RT-qPCR,0.1 to 1 µM
same,IC50,HTT mRNA; [3],< 0.1 µM
same,IC50,HTT mRNA; [4],< 0.1 µM
same,"Effect of Exemplary Compounds on Cell Viability, K562",K562 cells,B (B represents 100-1000 nM)
same,IC50,SMN2 mRNA,< 0.1 µM
Cc1c(O)c(-c2ccc3nc(C4CCNCC4)ccc3n2)cc2cn(C)nc12 [Compound 101],AC50,MYB mRNA; RT-qPCR,< 0.1 µM
same,IC50,MYB mRNA; [1],< 0.1 µM
same,IC50,MYB mRNA; [2],< 0.1 µM
same,IC50,MYB,< 0.1 µM
same,IC50,HTT,< 0.1 µM
same,IC50,Target C,< 0.1 µM
same,AC50,HTT mRNA; RT-qPCR,< 0.1 µM
same,IC50,HTT mRNA; [3],< 0.1 µM
same,IC50,HTT mRNA; [4],< 0.1 µM
same,"Effect of Exemplary Compounds on Cell Viability, K562",K562 cells,A (A represents <100 nM)
same,IC50,SMN2 mRNA,< 0.1 µM
Cn1cc2cc(-c3ccc4nc(C5CCNCC5)ccc4n3)c(O)c(F)c2n1 [Compound 102],AC50,MYB mRNA; RT-qPCR,< 0.1 µM
same,IC50,MYB mRNA; [1],< 0.1 µM
same,IC50,MYB mRNA; [2],< 0.1 µM
same,IC50,MYB,< 0.1 µM
same,IC50,HTT,< 0.1 µM
same,IC50,Target C,< 0.1 µM
same,AC50,HTT mRNA; RT-qPCR,< 0.1 µM
same,IC50,HTT mRNA; [3],< 0.1 µM
same,IC50,HTT mRNA; [4],< 0.1 µM
same,"Effect of Exemplary Compounds on Cell Viability, K562",K562 cells,A (A represents <100 nM)
same,IC50,SMN2 mRNA,< 0.1 µM
CN1CCC(N(C)c2ccc3nc(-c4cc5cn(C)nc5cc4O)ccc3n2)CC1 [Compound 126],AC50,MYB mRNA; RT-qPCR,0.1 to 1 µM
same,IC50,MYB mRNA; [1],0.1 to 1 µM
same,IC50,MYB mRNA; [2],0.1 to 1 µM
same,IC50,MYB,0.1 to 1 µM
same,IC50,HTT,0.1 to 1 µM
same,IC50,Target C,0.1 to 1 µM
same,AC50,HTT mRNA; RT-qPCR,0.1 to 1 µM
same,IC50,HTT mRNA; [3],0.1 to 1 µM
same,IC50,HTT mRNA; [4],0.1 to 1 µM
same,IC50,SMN2 mRNA,< 0.1 µM
Cn1cc2cc(-c3ccc4nc(N5C[C@H]6CC[C@@H](C5)N6)ccc4n3)c(O)cc2n1 [Compound 135],AC50,MYB mRNA; RT-qPCR,0.1 to 1 µM
same,IC50,MYB mRNA; [1],0.1 to 1 µM
same,IC50,MYB mRNA; [2],0.1 to 1 µM
same,IC50,MYB,0.1 to 1 µM
same,IC50,HTT,1 to 10 µM
same,IC50,Target C,1 to 10 µM
same,AC50,HTT mRNA; RT-qPCR,1 to 10 µM
same,IC50,HTT mRNA; [3],1 to 10 µM
same,IC50,HTT mRNA; [4],1 to 10 µM
same,IC50,SMN2 mRNA,< 0.1 µM
Cc1cn2cc(-c3ccc4nc(C5CCNCC5)ccc4n3)c(O)c(C)c2n1 [Compound 151],AC50,MYB mRNA; RT-qPCR,0.1 to 1 µM
same,IC50,MYB mRNA; [1],0.1 to 1 µM
same,IC50,MYB mRNA; [2],0.1 to 1 µM
same,IC50,MYB,0.1 to 1 µM
same,IC50,HTT,0.1 to 1 µM
same,IC50,Target C,0.1 to 1 µM
same,AC50,HTT mRNA; RT-qPCR,0.1 to 1 µM
same,IC50,HTT mRNA; [3],0.1 to 1 µM
same,IC50,HTT mRNA; [4],0.1 to 1 µM
same,IC50,SMN2 mRNA,0.1 to 1 µM
